# In patent US12239132B2, “Compounds and methods for increasing soil nutrient availability” (SOUND AGRICULTURE COMPANY, priority 2018, dated 2025):
# “Also recorded” adds a separate entry of the source.
# Legend:
# Bacillus megaterium = assay: Phosphate solubilization assay with Bacillus megaterium (liquid NBRIP, malachite green); format: cell-based; conditions: 100 ug/mL; for clearing (consumption) of insoluble phosphate in culture tubes, qualitative: B. megaterium in NBRIP
# Procedure: In some aspects, a compound disclosed herein, e.g., AB09, stimulates bacterial phosphate solubilization activity. […] Cultures of B. megaterium were grown in media containing only insoluble phosphorus with and without a compound such as AB09. At the start of the experiment, there was no detectable difference of orthophosphate levels in the growth media alone and media supplemented with B. megaterium and/or AB09. Orthophosphate was measured after 72 hours of bacterial growth. Specifically, A 5 mL culture of B. megaterium was seeded from a single colony into Nutrient Broth (NB) and grown overnight in a 30° C. shaker. The cell pellet was collected by centrifugation, washed twice and resuspended in water. The concentration of B. megaterium was measured using a Nanodrop OD600 reading. B. megaterium was inoculated into liquid NBRIP media, which contains insoluble tricalcium phosphate as its sole phosphorus source. The final concentration of B. megaterium in the NBRIP media was OD600=0.02 ([…]). NBRIP media was supplemented with ML in a 1% DMSO solution to a final concentration of 100 ug/ML or 1% DMSO (both were filter sterilized through a 0.2 uM filter). Cell counts at the start of the experiment (0 hours) and at 72 hours post inoculation were measured using dilution plating. At the experiment start and after 72 hours of growth, 1 mL of culture was collected from the culture tubes. The supernatant was collected by centrifugation (5 min at 13,000 rpm). The cleared supernatant was diluted […] in molecular grade water and used for orthophosphate analysis. The remaining 4 mL of supernatant were collected by centrifugation for pH readings. Orthophosphate was measured using the malachite-green phosphate method (BioAssay Systems Malachite Green Phosphate Assay Kit Catalog No: POMG-25H). Briefly, the sample is mixed with a solution of Malachite Green and molybdate, which forms a green complex with free orthophosphate from the sample. Data are quantified on a plate reader at 620 nm. Unknown samples were run with a standard curve of known concentrations of orthophosphate. […] Phosphate solubilization in NBRIP culture media is shown at experiment start (0 h) and after 72 hours of shaking at 30° C. The left axis corresponds to box plots and whisker plots of the concentration of solubilized phosphate in the bacterial supernatant. The right axis corresponds to the pH of the supernatant. n=7 culture tubes for each B. megaterium with and without ML, and n=3 culture tubes for no bacteria with and without AB09. The malachite green phosphate assay was performed in triplicate. […] In some instances, disclosed herein are experimental culture tubes of B. megaterium growing in NBRIP without ML (AB09; leftmost two tubes) and with 100 ug/mL ML (right three tubes).
# A strain of Bacillus megaterium (B. megaterium) was isolated from Iowa field soil and confirmed its ability to solubilize phosphorus by observing a cleared zone (or halo) around B. megaterium colonies when grown on solid media (NBRIP+Agar) containing only in insoluble form of phosphorus, Ca3(PO4)2. Cultures of B. megaterium were then grown in liquid NBRIP (containing only insoluble Ca3(PO4)2) with and without AB09. The growth media supernatant was analyzed for orthophosphate at the start of the experiment (0 h) and after 72 hours of growth by the malachite green quantification method.
# FIG. 1A illustrates phosphate solubilization in NBRIP culture media at experiment start (0 h) and after 72 hours of shaking at 30° C. The left axis corresponds to box plots and whisker plots of the concentration of available phosphate (orthophosphate) in the bacterial supernatant. […] The malachite green phosphate assay was performed in triplicate. FIG. 1B illustrates an example of experimental culture tubes of B. megaterium growing in NBRIP without AB09 (leftmost two tubes) and with 100 ug/mL AB09 (right three tubes). […]
# Bradyrhizobium japonicum = assay: RNASeq gene expression in Bradyrhizobium japonicum; format: cell-based
# Procedure: Expression levels for all genes in a nitrogen fixing bacteria (Bradyrhizobium japonicum) were measured in the presence or absence of AB09 using Illumina RNASeq technology.
# corn = assay: Corn field trials in Iowa, nitrogen deficiency; format: in vivo
# Source text: In some instances, disclosed herein is a field trial of AB09 application to corn plants.
# In some instances, disclosed herein is an aerial photograph description of a large scale strip field trial of corn plants applied with a compound, formulation, method, container, or kit disclosed herein, for example AB09. […] Greener (less yellow) coloring is indicative of healthier plants.
# AB09 was applied to Buckingham, Iowa corn plots at the start of the season. In some instances, disclosed herein is a photo of corn at stage R3, with a treated plot on the right, and an untreated plot […]. Leaf firing (yellowing on the lower leaves) is apparent on the untreated plot, where AB09 plants are greener. In some instances, disclosed herein is an aerial image of treated and untreated plots at tasseling. […] Nitrogen content was quantified using a standard tissue sampling test to measure percent nitrogen content in leaf tissue samples.
smiles,measurement,setting,value
"CC1=CC(Oc2c(C)occc2=O)OC1=O (stereo not shown) [AB09, maltol lactone]",pH of the growth media (supernatant),"Bacillus megaterium; 72 hours, concurrent with phosphate solubilization increase",decrease
same,"clearing (consumption) of insoluble phosphate in culture tubes, qualitative",Bacillus megaterium,increased clearing
same,"clearing (consumption) of insoluble phosphate in culture tubes, qualitative",Bacillus megaterium; listed as ML,Increased consumption
same,average concentration of orthophosphate in B. megaterium cultures compared to control cultures,"Bacillus megaterium; NBRIP media with insoluble Ca3(PO4)2, 72 hours",significantly increased
same,phosphate solubilization increase,"Bacillus megaterium; NBRIP media, 72 hours, vs control B. megaterium cultures",two-fold
same,gene expression (Illumina RNASeq) in presence vs absence of AB09,Bradyrhizobium japonicum,induced genetic regulators and pathways for nitrogen fixation and for microaerophilic growth
same,leaf firing (yellowing of the lower leaves) of corn,"corn; Buckingham, Iowa corn plots, stage R3, vs untreated plot",greener; also recorded: reduced leaf firing
same,nitrogen content in corn leaf tissue samples,corn; compared to a control sample,higher leaf nitrogen content
same,yellowing of corn plants at de-tassling,"corn; large scale strip field trial, aerial photograph, vs control plants",reduced yellowing
same,NDVI of plots at tasseling (aerial image),corn; treated strip vs untreated plot,higher NDVI values
